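Five concentrations, 48 hours, 96-well plates. Here, GI50 denotes the concentration required for 50% inhibition of growth. At the TGI there is no net growth.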
How the values were obtained:
Assay in all cases: inhibition of tumour cell growth, NCI panel, 48 h
MALME-3M melanoma = system: MALME-3M melanoma
NCI-H460 lung = system: NCI-H460 lung
HOP-62 NSCLC = system: HOP-62 NSCLC
SK-MEL-5 melanoma = system: SK-MEL-5 melanoma
SNB-19 CNS = system: SNB-19 CNS
RXF 393 renal = system: RXF 393 renal
U251 CNS = system: U251 CNS
SF-268 CNS = system: SF-268 CNS
SK-MEL-28 melanoma = system: SK-MEL-28 melanoma
SF-539 CNS = system: SF-539 CNS

Compound | TGI (MALME-3M melanoma) [µM] | TGI (NCI-H460 lung) [µM] | TGI (HOP-62 NSCLC) [µM] | TGI (SK-MEL-5 melanoma) [µM] | TGI (SNB-19 CNS) [µM] | TGI (RXF 393 renal) [µM] | TGI (U251 CNS) [µM] | TGI (SF-268 CNS) [µM] | TGI (SK-MEL-28 melanoma) [µM] | TGI (SF-539 CNS) [µM] | GI50 (MALME-3M melanoma) [µM] | GI50 (NCI-H460 lung) [µM] | GI50 (SK-MEL-5 melanoma) [µM] | GI50 (SNB-19 CNS) [µM] | GI50 (RXF 393 renal) [µM] | GI50 (SF-539 CNS) [µM] | GI50 (U251 CNS) [µM] | GI50 (SF-268 CNS) [µM] | GI50 (SK-MEL-28 melanoma) [µM]
CC1(C(=O)O)CCCC1C(=O)O (configuration not stated) | > 100 | > 100 | > 100 | > 100 | > 100 | > 100 | > 100 | > 100 | > 100 |  |  |  |  |  |  |  |  |  | 
O=C1C=CC(=O)c2c(O)c(NCCc3ccc(O)cc3)c(Cl)c(O)c21 | > 10 | > 10 | > 10 | > 10 | > 10 |  | > 10 | > 10 |  | > 10 |  |  |  |  |  |  |  |  | 
O=[N+]([O-])c1ccc(NC(=S)N=Nc2c(O)[nH]c3ccc(Br)cc23)cc1 | 20.2 | 21.2 | 30.4 | 33.4 |  | 26.5 | 21.9 | 26.1 | 33.5 | 82.9 |  |  |  |  |  |  |  |  | 
Cc1c2ncccc2cc2oc3ccccc3c(=O)c12 | > 100 | > 100 | > 100 | > 100 |  | > 100 |  | > 100 | > 100 | > 100 |  |  |  |  |  |  |  |  | 
CC1CC(=O)Nc2nc3ccccc3n21 (configuration not stated) | > 100 | > 100 | > 100 | > 100 | > 100 | > 100 | > 100 | > 100 |  | > 100 |  |  |  |  |  |  |  |  | 
CC(=O)OCC(OC(C)=O)C1C[C@H]2O[C@@H]3[C@H](C[C@H]2O1)O[C@@]1(C[C@@H]3C)C[C@H](C)[C@@H]2O[C@]3(C[C@@H]2O1)C[C@H]1O[C@H]2[C@H](C)[C@H]4OC(=O)CC5CC[C@H]6OC7[C@H]8O[C@]9(CC[C@H]%10CC(O)(CO)[C@H](CC[C@H]%11C[C@@H](C)C(O)(CO)C(C[C@@H]4O[C@H]2C[C@H]1O3)O%11)O%10)CC8O[C@@H]7[C@@H](O9)[C@H]6O5 (some centres not stated) | > 1 | > 1 | > 1 | > 1 | > 1 |  | > 1 | > 1 | > 1 |  |  |  |  |  |  |  |  |  | 
O=C(N/N=C/c1ccco1)c1cc(I)cc(I)c1O | > 50 |  |  | 34.4 | > 50 | > 50 |  | > 50 | > 50 | 26 |  |  |  |  |  |  |  |  | 
N#Cc1c(-c2ccc(F)cc2)nc(N/N=C/c2c[nH]c3ccccc23)nc1N1CCOCC1 | 4.76 | 25.2 |  | 25.9 | > 100 | 3.97 | 17.7 | > 100 | 4.04 | 23 | 2.75 | 3.48 | 10.9 | 21 | 1.19 | 3.68 | 2.16 | 17 | 1.92
COC1(OC)CCCCC2c3cccc(OC(C)=O)c3C21OC(C)=O (configuration not stated) | > 100 |  | > 100 | > 100 | > 100 |  |  | > 100 | > 100 | > 100 |  |  |  |  |  |  |  |  | 
CNC(=O)N(CCC#N)[C@H]1CCCC[C@@H]1N(C(=O)NC)c1ccccc1 | > 100 | > 100 | > 100 | > 100 | > 100 | > 100 | > 100 |  | > 100 | > 100 |  |  |  |  |  |  |  |  | 
CCOC(=O)C(CC#Cc1ccc(C#CCC(NC(C)=O)C(=O)OCC)cc1)NC(C)=O (configuration not stated) | > 100 | > 100 | > 100 | > 100 | > 100 | > 100 |  | > 100 | > 100 | > 100 |  |  |  |  |  |  |  |  | 
FC(F)(F)c1ccc2nc3n(c2c1)C(c1c(Cl)cccc1Cl)SC3 (configuration not stated) | 29.9 | 35.6 | 29.8 |  | 34 | 30.9 | 32.6 | 41.8 | 29.5 | 33.1 |  |  |  |  |  |  |  |  | 
Cc1cn(C(C)OCCN2C(=O)c3ccccc3C2=O)c(=O)[nH]c1=O (configuration not stated) |  | > 100 | > 100 | > 100 | > 100 | > 100 | > 100 |  | > 100 | > 100 |  |  |  |  |  |  |  |  | 
CCC(C)C(=O)OC1CC2(C)C(c3ccoc3)OC(=O)CC23OC2(C)OC34C(OC(=O)C(C)C)C3(O)C(OC(=O)C5(C)OC5C)C5(C)CC3(O)C(C)(C5CC(=O)OC)C14O2 (configuration not stated) | > 100 | > 100 |  | 87 | > 100 |  | > 100 | > 100 | > 100 | 79.6 |  |  |  |  |  |  |  |  | 
NC1CNC(=O)c2c(Cl)sc(Cl)c21 (configuration not stated) | > 100 | > 100 | > 100 |  | > 100 | > 100 | > 100 | > 100 | > 100 | > 100 |  |  |  |  |  |  |  |  | 
O=C(O)C(CO)NC(=O)n1c2ccccc2c2ccccc21 (configuration not stated) | > 100 | > 100 | > 100 | > 100 | > 100 | > 100 |  | > 100 | > 100 | > 100 |  |  |  |  |  |  |  |  | 
O=c1oc2cc(O)ccc2c(O)c1C(c1ccc(C(c2c(O)c3ccc(O)cc3oc2=O)c2c(O)c3ccc(O)cc3oc2=O)cc1)c1c(O)c2ccc(O)cc2oc1=O | > 100 | > 100 | > 100 | > 100 |  | > 100 | > 100 | > 100 | > 100 | > 100 |  |  |  |  |  |  |  |  | 
CN(C)CCn1c(=O)c2ccc(NCCCN(C)CCCNc3ccc4c(=O)n(CCN(C)C)c(=O)n5c6ccc([N+](=O)[O-])cc6c(=O)c3c45)c3c(=O)c4cc([N+](=O)[O-])ccc4n(c1=O)c23 | 0.781 | 0.12 | 0.842 | 0.311 | 0.193 |  | 0.124 | 0.733 | 0.553 | 0.851 |  |  |  |  |  |  |  |  | 
O=c1[nH]nc(-c2ccccc2)c2[nH]c(-c3ccccc3)cc12 | > 100 |  | > 100 |  | > 100 | > 100 |  | > 100 |  |  |  |  |  |  |  |  |  |  | 
Brc1cccc(N=NN2CCCC2)c1 |  | > 100 | > 100 | > 100 | > 100 | > 100 | > 100 | > 100 |  | > 100 |  |  |  |  |  |  |  |  | 
O=C(O)C(CS)N=c1c2ccccc2n(O)c2ccccc12 (configuration not stated) | > 100 | > 100 | > 100 | > 100 | > 100 |  | > 100 | > 100 | > 100 |  |  |  |  |  |  |  |  |  | 
Cc1cc2ncc3c(=O)n(NS(=O)(=O)c4ccc(N)cc4)ccc3n2n1 | > 100 | > 100 | > 100 | > 100 | > 100 |  | > 100 | > 100 | > 100 | > 100 |  |  |  |  |  |  |  |  | 

Reference: PubChem BioAssay (NCI)
